{"source": "paper PMC6285983", "about": "“Novel broad spectrum virucidal molecules against enveloped viruses” (PLoS ONE, 2018)", "key": {"[1]": {"test_system": "ZIKV", "experiment": "ZIKV plaquing efficiency assay", "type": "cell-based, Zika virus (PRVABC59)", "conditions": "Zika virus, ZIKAV"}, "[2]": {"test_system": "Ad5", "experiment": "Ad5 inhibition assay on HeLa cells", "type": "cell-based, Adenovirus 5", "description": "HeLa cells were plated in 96-well plates. […] The GFP-expressing infected cells were observed under an inverted Zeiss LSM510 fluorescence microscope (Zeiss, Oberkochen, Germany) and the percentages of infection were calculated by comparing GFP positive cells in treated and untreated wells."}, "[3]": {"test_system": "HSV-2", "experiment": "Entry assay", "type": "cell-based", "conditions": "10 μM, HSV-2 MOI 10", "description": "(§1) Since the observed irreversible effect can be exerted at different stages of viral infection, we investigated more in detail if compound 9d produced a physical disruption of the virus, thus preventing its attachment to the cells or a successive irreversible modification. We performed entry and binding assays, evaluating the amount of bound virus through immunostaining or qPCR. […] On the contrary, when entry assays were performed, it was possible to observe a reduction in the amount of virus associated to the cells (Fig 7D). With this assay, the signal from the virus could be related to virus in the cytoplasm or blocked in the endosomes, since the treatment with acidic glycine is affecting only the virus at the surface of the cell. […]\n(§2) Cells were plated on coverslips and the following day the binding or entry protocol described above was applied. […] Rhodamine conjugated anti-rabbit (Santa Cruz) was then added on cells for 1 h at 37°C following 3 washes coverslips were mounted on microscope glasses and observed with Zeiss LSM510 fluorescence microscope (Zeiss, Oberkochen, Germany) and images were acquired."}, "[4]": {"experiment": "Cell viability MTS assay, conditions of the HCMV assay", "type": "cell-based", "conditions": "human, HELF cells", "description": "Cell viability was measured using the MTS [3- (4,5-dimethylthiazol-2-yl)-5- (3 carboxy methoxy phenyl)-2-(4-sulfophenyl)-2H-tetrazolium] assay. Cell cultures were seeded in 96-well plates and were incubated with different concentrations of compounds in duplicate under the same experimental conditions described for the antiviral assays, (i.e. if the incubation time of the compound on cells was carried for 2 hours and then the evaluation of the antiviral activity was done 72h later, the same timing was used for the cytotoxicity assays, in order to exclude any toxicity effect in the antiviral evaluation). Cell viability was determined using the CellTiter 96 Proliferation Assay Kit (Promega, Madison, WI, USA) according to the manufacturer's instructions. Absorbances were measured using a Microplate Reader (Model 680, BIORAD) at 490 nm. The effect on cell viability at different concentrations of the compound was expressed as a percentage, by comparing absorbances of treated cells with those of cells incubated with culture medium and equal volumes of vehicle. […]\nHELF cells were pre-plated in a 96-well plate. […] After five days incubation, cells were observed under an inverted Zeiss LSM510 fluorescence microscope (Zeiss, Oberkochen, Germany) and the percentages of infection were calculated by comparing GFP positive cells in treated and untreated wells."}, "[5]": {"test_system": "HSV-2", "experiment": "Viral yield reduction, post treatment", "conditions": "Human alphaherpesvirus 2"}, "[6]": {"test_system": "HSV-2", "experiment": "Binding assay (qPCR, immunostaining, IF)", "type": "cell-based", "conditions": "10 μM, HSV-2 MOI 10, 2 h on Vero cells at 4°C", "description": "as §1, with “7D).” for “7D). With this assay, the signal from the virus could be related to virus in the cytoplasm or blocked in the endosomes, since the treatment with acidic glycine is affecting only the virus at the surface of the cell.”\nas §2\nCells subjected to binding assays were then lysed and subjected to total DNA/RNA extraction and subsequently subjected to qPCR using as primers 5’- […] -3’ and 5’-[…] -3’ and as probe 5’-FAM […] -TAMRA for 40 cycles at 94°C for 15” followed by 60°C for 60”. The results were normalized according to values of rnasep and the % of bound virus were measured comparing the Δct of treated wells to wells treated with equal volume of solvent."}, "[7]": {"experiment": "In vitro lipoperoxidation test (TBA assay, MDA)", "conditions": "DPPC liposomes, 37°C, 30 minutes"}, "[8]": {"test_system": "VSV", "experiment": "microbe, parasite or virus in culture", "type": "cell-based", "conditions": "Vesicular stomatitis virus"}, "[9]": {"experiment": "Cell viability MTS assay, conditions of the IAV assay", "type": "cell-based, Canine", "conditions": "dog, MDCK cells", "description": "Cell viability was measured using the MTS [3- (4,5-dimethylthiazol-2-yl)-5- (3 carboxy methoxy phenyl)-2-(4-sulfophenyl)-2H-tetrazolium] assay. Cell cultures were seeded in 96-well plates and were incubated with different concentrations of compounds in duplicate under the same experimental conditions described for the antiviral assays, (i.e. if the incubation time of the compound on cells was carried for 2 hours and then the evaluation of the antiviral activity was done 72h later, the same timing was used for the cytotoxicity assays, in order to exclude any toxicity effect in the antiviral evaluation). Cell viability was determined using the CellTiter 96 Proliferation Assay Kit (Promega, Madison, WI, USA) according to the manufacturer's instructions. Absorbances were measured using a Microplate Reader (Model 680, BIORAD) at 490 nm. The effect on cell viability at different concentrations of the compound was expressed as a percentage, by comparing absorbances of treated cells with those of cells incubated with culture medium and equal volumes of vehicle. The 50% cytotoxic concentrations (CC50) and 95% confidence intervals (CIs) were determined using Prism software (Graph-Pad Software, San Diego, CA). For compound 9d a continuous incubation of 1, 2, 3 and 4 days on Vero cells was carried in order to evaluate the toxicity after long exposure the results are shown in S1 Fig and Fig 3."}}, "data": [{"smiles": "CC(C)c1ccc(CCN2C(=O)/C(=C/c3ccc(-c4ccc(C(=O)O)c(O)c4)o3)SC2=S)cc1", "note": "[Compound 9d, (Z)-2-hydroxy-4-(5-((3-(4-isopropylphenethyl)-4-oxo-2-thioxothiazolidin-5-ylidene)methyl)furan-2-yl)benzoic acid]", "values": [{"measurement": "EC50", "setting": "[1]; read-out: EC50 (95% C.I.)", "value": 69.9, "unit": "nM"}, {"measurement": "EC90", "setting": "[1]; read-out: EC90 (95% C.I.)", "value": 147, "unit": "nM"}, {"measurement": "antiviral activity against non-enveloped virus", "setting": "[2]", "value": "inactive"}, {"measurement": "amount of virus associated to the cells", "setting": "[3]", "value": "reduction"}, {"measurement": "CC50 at 3 h", "setting": "[4]", "value": 5240, "unit": "nM"}, {"measurement": "EC50", "setting": "[5]", "value": 33.9, "unit": "nM"}, {"measurement": "viral binding capability", "setting": "[6]", "value": "not altering viral binding capability"}, {"measurement": "melting point", "value": "259 °C (dec.)"}, {"measurement": "lipid peroxidation of linoleic acid (MDA)", "setting": "[7]", "value": "remarkable lipid peroxidation"}, {"measurement": "EC50", "setting": "[8]; read-out: EC50 (95% C.I.)", "value": 13.2, "unit": "nM"}, {"measurement": "EC90", "setting": "[8]; read-out: EC90 (95% C.I.)", "value": 117, "unit": "nM"}, {"measurement": "CC50 at 1 h", "setting": "[9]", "value": 136000, "unit": "nM"}]}]}
